Laboratory results published in patent publication US5773423A (priority 1994, dated 1998).
Numbering of substitutions follows the chain as printed. Like-named read-outs stand apart in the source and are kept apart here. Blank lines part the entries; values can stand above or below the compound they belong to.

Legend:
[1] = tested on: locomotor activity in mice; assay: Locomotor activity in mice (open field, Digiscan activity monitor); format: in vivo, mouse (NIH Swiss)
[2] = target: T1, A1 receptors from rat brain membranes (Rattus norvegicus, UniProt P25099); assay: biochemical; format: binding; conditions: for Ki: rat brain membranes; for inhibition at 100 µM: read-out: A1 percent displacement
T1 construct: Rat cerebral cortical and striatal membranes were prepared; from tissue; host or cells: rat brain (cerebral cortical) membranes
T1 sequence (P25099 1-326): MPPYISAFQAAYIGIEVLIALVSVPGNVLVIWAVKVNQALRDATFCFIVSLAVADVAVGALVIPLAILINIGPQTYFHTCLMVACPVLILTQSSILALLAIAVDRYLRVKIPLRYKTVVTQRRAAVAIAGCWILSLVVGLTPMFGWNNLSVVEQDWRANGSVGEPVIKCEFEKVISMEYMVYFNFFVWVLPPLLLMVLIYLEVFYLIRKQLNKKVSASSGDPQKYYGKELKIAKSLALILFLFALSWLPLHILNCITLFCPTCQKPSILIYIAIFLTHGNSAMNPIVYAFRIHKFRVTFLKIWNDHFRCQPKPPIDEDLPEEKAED

[3] = target: T2, A2 receptors from rat striatal membranes (Rattus norvegicus, UniProt P30543); assay: Radioligand binding at A2 (A2a) receptors, displacement of [3H]CGS 21680 (or [3H]NECA with 50 nM CPA) from rat striatal membranes
T2 construct: Rat cerebral cortical and striatal membranes were prepared; from tissue; host or cells: rat striatal membranes
T2 sequence (P30543 whole entry): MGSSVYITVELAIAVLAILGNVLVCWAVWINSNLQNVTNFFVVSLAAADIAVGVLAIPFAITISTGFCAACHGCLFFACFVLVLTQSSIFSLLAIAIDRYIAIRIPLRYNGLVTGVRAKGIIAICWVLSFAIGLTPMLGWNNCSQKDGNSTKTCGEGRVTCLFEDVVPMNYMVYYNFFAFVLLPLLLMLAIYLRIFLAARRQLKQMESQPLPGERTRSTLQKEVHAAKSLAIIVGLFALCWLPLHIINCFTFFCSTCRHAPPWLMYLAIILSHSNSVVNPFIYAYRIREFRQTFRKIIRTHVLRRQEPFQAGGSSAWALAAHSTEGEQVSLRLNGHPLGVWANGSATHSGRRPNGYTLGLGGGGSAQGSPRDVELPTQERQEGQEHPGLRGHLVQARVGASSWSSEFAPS

[4] = target: T2, A2 receptors from rat striatal membranes
[5] = target: T1, A1 receptors from rat brain membranes
[6] = tested on: cardiovascular parameters in rats; format: in vivo, rat
[7] = tested on: NMDA-evoked seizures in mice; format: in vivo
[8] = tested on: pentamethylenetetrazole-induced convulsions in mice; format: in vivo; conditions: PMT 75 mg/kg alone
[9] = target: T3, A1 and A3 adenosine receptors in mouse brain membranes (Mus musculus, UniProt Q60612)
T3 sequence (Q60612 1-326): T1 sequence (P25099 1-326) with V151E, D155A, R157I, D316E, L319I, E325D

[10] = displacement of [3H]PIA (or [3H]CHA), read-out: A1 affinity Ki
[11] = rat striatal membranes, displacement of [3H]CGS 21680 (or [3H]NECA + 50 nM CPA), read-out: A2 affinity Ki
[12] = values without SEM, taken from the literature; read-out: A2 affinity Ki; cited from earlier work
[13] = values without SEM, taken from the literature; read-out: A1 affinity Ki; cited from earlier work
[14] = read-out: A1 affinity Ki; values without SEM, taken from the literature; cited from earlier work
[15] = 0.1 mg/kg i.p., from initial value
[16] = read-out: A2 percent displacement
[17] = 4 mg/kg alone, 10-30 min post-injection

SMILES: CN1CCC(=C2c3ccccc3C=Cc3ccccc32)CC1 [cyproheptadine, reference compound]
effect on 3-IB-MECA-induced scratching (in words) ([1]; 1 mg/kg): only partial
effect on 3-IB-MECA-induced scratching (in words) ([1]; 10 mg/kg i.p.): eliminated this behavior

Ki [2, 10]: 0.0873 ± 0.0139 µM
Ki [3, 11]: 0.0953 ± 0.0246 µM
SMILES: CCNC(=O)[C@H]1O[C@@H](n2cnc3c(NCc4ccccc4)ncnc32)[C@H](O)[C@@H]1O [Compound 28, N^6-benzyladenosine-5'-N-ethyluronamide]
Ki [4, 12]: 0.095 µM

SMILES: Cn1cnc2c1c(=O)[nH]c(=O)n2C [Compound 106, 3,7-dimethylX]
Ki [5, 13]: 83.4 µM
Ki [4, 12]: 187 µM

SMILES: O=S(=O)(O)CCNc1ncnc2c1ncn2[C@@H]1O[C@H](CO)[C@@H](O)[C@H]1O [Compound 11, N^6-(2-sulfo)ethyladenosine]
A1 percent displacement ([5]; at 100 μM, value without SEM, from the literature; cited from earlier work): 41%

Ki ([2]; Table 2, [3H]PIA, read-out: Ki (A1)): 0.4 µM
Ki ([3]; Table 2, [3H]CGS 21680, rat striatal membranes, read-out: Ki (A2)): 0.0057 µM
SMILES: CCNC(=O)[C@H]1O[C@@H](n2cnc3c(N)nc(NCCc4ccc(CCC(=O)NCCN)cc4)nc32)[C@H](O)[C@@H]1O [APEC, reference compound]
reduction in locomotor activity at chosen dose ([1]; APEC 16 μg/kg, 3-IB-MECA 100 μg/kg i.p.): ca. 50%

SMILES: COc1cc(OC)cc(C(CNc2ncnc3c2ncn3[C@@H]2O[C@H](CO)[C@@H](O)[C@H]2O)c2ccccc2C)c1 (stereo partly shown) [Compound 10, N^6-[2-(3,5-dimethoxyphenyl)-2-(2-methylphenyl)ethyl]adenosine]
Ki ([4]; read-out: A2 affinity Ki; cited from earlier work): 0.0044 µM

Ki [3, 11]: 19.4 µM
SMILES: Cn1c(=O)[nH]c2ncn(C)c2c1=O [Compound 104, 1,7-dimethylX, reference compound]
Ki [5, 13]: 30 µM

SMILES: N=C(N)NC(=O)c1nc(Cl)c(N)nc1N [Compound 97, amiloride]
Ki [5, 14]: 11 µM
Ki ([4]; read-out: A2 affinity Ki; values without SEM, taken from the literature; cited from earlier work): 17 µM

SMILES: OC[C@H]1O[C@@H](n2cnc3c(NC4CCCC4)cc(Cl)nc32)[C@H](O)[C@@H]1O [Compound 15, 1-deaza-2-chloro-N^6-cyclopentyladenosine]
Ki [4, 12]: 13.2 µM

SMILES: OC[C@H]1O[C@@H](n2cnc3c(NC4CCCC4)ncnc32)[C@H](O)[C@@H]1O [Compound 4, N^6 -cyclopentyladenosine, reference compound]
duration of bradycardiac effect ([6]; 0.1 mg/kg i.p., entire monitoring period): 90 min
drop in blood pressure [6, 15]: 50%
drop in heart rate [6, 15]: 20%
time at which hypotensive effect begins to wane ([6]; 0.1 mg/kg i.p., post-injection): approximately 20 min
ED50 ([1]; Mus musculus, ip, read-out: ED50 for locomotor depression): 0.1 mg/kg

Ki [3, 11]: 13.5 µM
SMILES: CCNC(=O)[C@H]1O[C@@H](n2cnc3c(N(C)C)ncnc32)[C@H](O)[C@@H]1O [Compound 29, N^6 -dimethylNECA, reference compound]
Ki [5, 13]: 9.6 µM

SMILES: O=c1[nH]c(=O)c2[nH]cnc2[nH]1 [Compound 98, xanthine, reference compound]
inhibition at 100 µM [3, 16]: 16.2 ± 2.6%
Ki [5, 13]: 298 µM

SMILES: CN[C@H](CC(=O)O)C(=O)O [NMDA, N-methyl-D-aspartate, reference compound]
% Mortality at 24 h ([7]; NMDA 60 mg/kg alone): 60%
Ave. Latency to Seizures ([7]; NMDA 60 mg/kg alone): 244 + 90 sec
% Convulsing ([7]; NMDA 60 mg/kg alone (control), within 15 min): 80%
Impairment (neurological impairment scale 1-6) ([7]; NMDA 60 mg/kg alone, 1 no change ... 6 clonic/tonic complexes): 3.5 ± 0.5

SMILES: CCCn1c(=O)c2[nH]c(-c3ccc(S(=O)(=O)O)cc3)nc2n(CCC)c1=O [Compound 135, 8-sulfophenyl-1,3-dipropylX]
Ki [5, 13]: 0.14 µM
Ki [4, 12]: 0.79 µM

SMILES: C1CCc2nnnn2CC1 [PMT, pentamethylenetetrazole, reference compound]
Mortality 0.4-5 h [8]: 0%
Mortality <15 min [8]: 100%
Mortality >5 h [8]: 0%
Mortality Overall [8]: 100%
Onset of convulsive behavior [8]: 74 s

SMILES: NC(=O)[C@H]1O[C@@H](n2cnc3c(N)ncnc32)[C@H](O)[C@@H]1O [Compound 20, 5'-carboxamidoadenosine]
Ki [5, 13]: 0.0726 µM
Ki [4, 12]: 0.12 µM

SMILES: CC(C)Cn1c(=O)n(C)c(=O)c2[nH]cnc21 [Compound 108, 3-isobutyl-1-methylxanthine]
Ki [4, 12]: 16 µM

SMILES: CCCn1c(=O)c2[nH]c(C3CCCC3)nc2n(CCC)c1=O [Compound 130, 8-cyclopentyl-1,3-dipropylxanthine]
displacement of specific [125I]AB-MECA binding (in words) [9]: completely displaced most but not all of the high affinity [^125 I]AB-MECA binding
Ki for displacement of [125I]AB-MECA binding ([9]; sigmoidal competition curves): 0.002 to 0.008 µM

Ki [3, 11]: 28.9 µM
SMILES: CN(C)c1ncnc2c1ncn2[C@@H]1O[C@H](CO)[C@@H](O)[C@H]1O [Compound 9, N^6 -dimethyladenosine, reference compound]
Ki [5, 13]: 10 µM

SMILES: CCNC(=O)[C@H]1O[C@@H](n2cnc3c(NC4CCCCC4)ncnc32)[C@H](O)[C@@H]1O [Compound 27, N^6 -cyclohexylNECA]
Ki ([5]; read-out: A1 affinity Ki; cited from earlier work): 0.00043 µM
Ki [4, 12]: 0.17 µM

SMILES: CCCn1c(=O)c2[nH]c(-c3ccc(C=CC(=O)O)cc3)nc2n(CCC)c1=O [BW1433, 1,3-dipropyl-8-(4-carboxyvinylphenyl)xanthine, reference compound]
blood flow and respiratory rates (in words) ([6]; 4 mg/kg alone): Blood flow and respiratory rates were increased
rise in blood pressure [6, 17]: > 40 % of initial values
rise in heart rate [6, 17]: > 40 % of initial values
body temperature (in words) ([6]; rat, in vivo, 4 mg/kg): no major changes

SMILES: Nc1ncnc2c1ccn2[C@@H]1O[C@H](CO)[C@@H](O)[C@H]1O [Compound 33, 7-deazaadenosine, reference compound]
A2 percent displacement ([3]; striatal membranes, 100 µM): 48.3 ± 0.4%
Ki [5, 14]: > 0.1 µM

SMILES: Nc1[nH]c2ccccc2c2ncnc1-2 [Compound 94, imidazo[4,5-c]quinolin-4-amine]
Ki [4, 12]: 1.4 µM

SMILES: Cn1c(=O)[nH]c2nc[nH]c2c1=O [Compound 99, 1-methylX]
Ki [5, 13]: 11.4 µM
Ki [4, 12]: 36.2 µM

SMILES: O=c1ccn([C@@H]2O[C@H](CO)[C@@H](O)[C@H]2O)c(=O)[nH]1 [Compound 82, uridine, reference compound]
inhibition at 100 µM ([2]; at 100 μM): 14.3 ± 6.9%
inhibition at 100 µM [3, 16]: 2.8 ± 5.2%

inhibition at 100 µM ([2]; at 100 μM): 19.7 ± 7.9%
inhibition at 100 µM [3, 16]: 4.2 ± 5.9%
SMILES: Cn1cnc2c(=O)[nH]c(=O)n(C)c21 [Compound 107, 3,9-dimethylX, reference compound]

Ki [2, 10]: 4.19 µM
Ki [3, 11]: 19.5 µM
SMILES: CCCCn1c(=O)c2c(ncn2[C@@H]2O[C@H](CO)[C@@H](O)[C@H]2O)n(CCCC)c1=O [Compound 119, 1,3-di-n-butylxanthine-7-β-D-ribofuranoside]

SMILES: CCNC(=O)[C@H]1O[C@@H](n2cnc3c(=O)[nH]cnc32)[C@H](O)[C@@H]1O [Compound 91, inosine-5'-N-ethyluronamide]
IC50 [2]: > 100 µM
inhibition at 100 µM [2]: 43.7 ± 10.3%
IC50 [3]: > 100 µM
inhibition at 100 µM [3, 16]: 30.6 ± 2.3%

Ki ([2]; Table 4, [3H]PIA, read-out: Ki (A1)): 27 µM
inhibition at 100 µM ([3]; read-out: percent displacement of radioligand at A2): 2%
SMILES: Cn1c(=O)c2c(ncn2[C@@H]2O[C@H](CO)[C@@H](O)[C@H]2O)n(C)c1=O [Compound 117, theophylline-7-riboside, reference compound]
